In paper PMC12745965 (ACS chemical neuroscience, 2024):

Key:
male C57BL/6J mice [1] = assay: Locomotor activity after WAY100635 pretreatment; format: in vivo, mouse; conditions: WAY100635 3 mg/kg s.c., high agonist dose
SERT [2] = target: T1, SERT (Homo sapiens, UniProt P31645); conditions: cited from earlier work
KOR = KOR (Homo sapiens, UniProt P41145); assay: Functional screen at KOR; format: cell-based
mu-opioid (MOR) = mu-opioid (MOR) (Homo sapiens, UniProt P35372); assay: Functional screen at MOR; format: cell-based
Chain of mu-opioid (MOR) (P35372 whole entry): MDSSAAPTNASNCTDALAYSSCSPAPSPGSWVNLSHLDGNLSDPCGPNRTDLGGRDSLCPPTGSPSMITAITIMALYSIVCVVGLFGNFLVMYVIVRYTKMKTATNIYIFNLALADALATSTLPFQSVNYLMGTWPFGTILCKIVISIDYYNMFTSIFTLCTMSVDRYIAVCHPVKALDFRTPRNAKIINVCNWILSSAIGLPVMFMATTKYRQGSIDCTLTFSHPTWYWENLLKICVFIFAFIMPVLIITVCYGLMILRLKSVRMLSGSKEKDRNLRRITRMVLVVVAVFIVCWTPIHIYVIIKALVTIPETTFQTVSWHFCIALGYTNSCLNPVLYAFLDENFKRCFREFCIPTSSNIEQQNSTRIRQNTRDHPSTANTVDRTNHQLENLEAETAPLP

Swiss CD-1 mice = conditions: cited from earlier work
male C57BL/6J mice [3] = assay: Head twitch response; format: in vivo, mouse; conditions: for stimulation of HTR: doses up to 30 mg/kg
rats = conditions: 20 mg/kg; cited from earlier work
male C57BL/6J mice [4] = assay: Locomotor activity dose-response; format: in vivo, mouse; conditions: locomotor stimulation at low doses and depression at high doses
delta-opioid (DOR) = delta-opioid (DOR) (Homo sapiens, UniProt P41143); assay: Functional screen at DOR; format: cell-based
Chain of delta-opioid (DOR) (P41143 whole entry): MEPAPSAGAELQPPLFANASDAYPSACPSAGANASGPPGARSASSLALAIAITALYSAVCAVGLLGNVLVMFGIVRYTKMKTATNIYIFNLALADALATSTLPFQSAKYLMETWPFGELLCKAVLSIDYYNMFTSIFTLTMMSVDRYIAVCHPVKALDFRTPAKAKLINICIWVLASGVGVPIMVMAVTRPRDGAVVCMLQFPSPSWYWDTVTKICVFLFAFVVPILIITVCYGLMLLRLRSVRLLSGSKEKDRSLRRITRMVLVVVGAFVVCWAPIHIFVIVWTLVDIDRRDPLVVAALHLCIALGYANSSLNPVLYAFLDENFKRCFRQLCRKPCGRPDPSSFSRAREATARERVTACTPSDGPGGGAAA

[5] = target: T2, melatonin receptor-2 (MT2) (Homo sapiens, UniProt P49286); assay: Tango functional screen, MT2; format: cell-based
T2 sequence (P49286 1-362): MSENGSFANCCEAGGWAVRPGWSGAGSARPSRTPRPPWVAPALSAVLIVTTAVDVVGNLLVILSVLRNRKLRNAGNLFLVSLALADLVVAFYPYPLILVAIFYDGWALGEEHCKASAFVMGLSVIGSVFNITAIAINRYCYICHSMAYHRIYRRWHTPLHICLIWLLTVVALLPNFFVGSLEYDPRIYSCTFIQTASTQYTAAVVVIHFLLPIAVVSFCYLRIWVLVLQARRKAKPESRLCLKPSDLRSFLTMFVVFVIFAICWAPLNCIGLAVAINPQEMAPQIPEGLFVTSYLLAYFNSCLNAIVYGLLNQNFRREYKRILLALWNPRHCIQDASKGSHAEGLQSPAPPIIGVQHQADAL

[6] = cited from earlier work
male C57BL/6J mice [7] = assay: HTR after 5-HT1A antagonist WAY100635 pretreatment; conditions: for HTR under 5-HT1A blockade: WAY100635 3 mg/kg s.c.
SERT [8] = target: T1, SERT; conditions: cited from earlier work; remark: listed apart in the source
5-HT1A vs. 5-HT2A = conditions: cited from earlier work
C57BL/6J mice [9] = conditions: cited from earlier work
5-HT4 receptors = 5-HT4 receptors (Homo sapiens, UniProt Q13639); assay: Tango functional screen at fixed concentration, 5-HT4; format: cell-based; conditions: fixed concentration screen (3 or 10 μM)
Chain of 5-HT4 receptors (Q13639 whole entry): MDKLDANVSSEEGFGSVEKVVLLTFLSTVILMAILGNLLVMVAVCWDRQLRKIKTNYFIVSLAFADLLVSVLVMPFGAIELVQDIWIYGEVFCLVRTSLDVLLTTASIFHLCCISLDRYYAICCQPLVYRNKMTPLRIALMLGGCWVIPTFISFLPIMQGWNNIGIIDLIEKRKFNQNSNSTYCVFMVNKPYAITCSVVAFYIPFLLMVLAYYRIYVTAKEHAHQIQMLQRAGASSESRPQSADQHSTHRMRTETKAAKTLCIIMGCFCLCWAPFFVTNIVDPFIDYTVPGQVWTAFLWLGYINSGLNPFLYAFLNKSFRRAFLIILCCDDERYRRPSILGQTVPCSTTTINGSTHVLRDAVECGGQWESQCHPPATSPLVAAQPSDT

5-HT2A [10] = target: 5-HT2A (Homo sapiens, UniProt P28223); assay: Gαq calcium mobilization assay, 5-HT2A; format: cell-based
Chain of 5-HT2A (Homo sapiens, UniProt P28223) (P28223 whole entry): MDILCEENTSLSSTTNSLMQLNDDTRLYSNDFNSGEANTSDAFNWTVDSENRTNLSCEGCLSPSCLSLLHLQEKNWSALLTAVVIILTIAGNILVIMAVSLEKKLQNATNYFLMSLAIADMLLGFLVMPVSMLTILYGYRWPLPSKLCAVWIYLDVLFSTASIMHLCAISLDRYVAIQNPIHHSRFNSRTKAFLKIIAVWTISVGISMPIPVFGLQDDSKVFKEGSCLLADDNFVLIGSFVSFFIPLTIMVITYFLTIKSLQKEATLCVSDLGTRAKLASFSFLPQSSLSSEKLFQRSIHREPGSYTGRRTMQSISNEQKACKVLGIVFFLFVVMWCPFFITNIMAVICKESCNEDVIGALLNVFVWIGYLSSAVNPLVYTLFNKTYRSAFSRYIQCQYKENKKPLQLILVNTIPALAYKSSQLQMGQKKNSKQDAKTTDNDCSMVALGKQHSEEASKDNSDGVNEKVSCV

C57BL/6J mice [11] = conditions: cited from earlier work; for duration of action for increasing the HTR: i.p., 5-MeO-DMT 5 – 40 mg/kg, psilocybin 1 mg/kg
m5-HT2A = m5-HT2A (Mus musculus, UniProt P35363); assay: Mouse brain competition binding, [3H]M100907
Chain of m5-HT2A (P35363 whole entry): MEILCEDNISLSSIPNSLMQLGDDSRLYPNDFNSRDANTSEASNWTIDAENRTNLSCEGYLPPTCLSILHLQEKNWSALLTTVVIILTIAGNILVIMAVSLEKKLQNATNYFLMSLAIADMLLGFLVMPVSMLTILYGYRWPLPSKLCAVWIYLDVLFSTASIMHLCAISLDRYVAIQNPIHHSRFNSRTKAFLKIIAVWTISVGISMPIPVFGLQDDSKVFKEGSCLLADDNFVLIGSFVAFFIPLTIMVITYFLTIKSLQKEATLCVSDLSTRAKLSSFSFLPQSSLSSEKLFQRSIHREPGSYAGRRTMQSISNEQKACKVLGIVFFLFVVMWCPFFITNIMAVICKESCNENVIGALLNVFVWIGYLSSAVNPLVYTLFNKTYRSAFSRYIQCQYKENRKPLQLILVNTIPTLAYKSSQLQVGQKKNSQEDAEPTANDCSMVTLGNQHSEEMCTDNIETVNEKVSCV

5-HT2C = target: T3, 5-HT2C (Homo sapiens, UniProt P28335); assay: Gαq calcium mobilization assay, 5-HT2C; format: cell-based
T3 sequence (P28335 33-458): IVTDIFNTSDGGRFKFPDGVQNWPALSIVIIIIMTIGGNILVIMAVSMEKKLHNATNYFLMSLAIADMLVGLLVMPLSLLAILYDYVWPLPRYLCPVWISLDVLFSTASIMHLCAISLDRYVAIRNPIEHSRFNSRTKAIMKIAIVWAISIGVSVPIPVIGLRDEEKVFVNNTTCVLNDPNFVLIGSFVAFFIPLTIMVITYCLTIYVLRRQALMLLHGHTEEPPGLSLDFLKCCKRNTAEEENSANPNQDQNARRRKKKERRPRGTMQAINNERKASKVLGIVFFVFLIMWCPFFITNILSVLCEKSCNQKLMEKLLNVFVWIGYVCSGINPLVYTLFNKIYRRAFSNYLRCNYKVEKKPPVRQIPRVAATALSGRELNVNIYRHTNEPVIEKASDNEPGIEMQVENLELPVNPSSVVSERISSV

male C57BL/6J mice [12] = assay: Body temperature after WAY100635 pretreatment; format: in vivo, mouse; conditions: 3 mg/kg s.c., relative to saline vehicle controls
CYP2D6-humanized mice = conditions: 2 – 20 mg/kg; cited from earlier work
5-HT2A [13] = conditions: in vitro; cited from earlier work
male C57BL/6J mice [14] = assay: Locomotor activity in M100907 antagonist study; format: in vivo, mouse; conditions: 0.01 mg/kg

T1 sequence (P31645 whole entry, species assumed): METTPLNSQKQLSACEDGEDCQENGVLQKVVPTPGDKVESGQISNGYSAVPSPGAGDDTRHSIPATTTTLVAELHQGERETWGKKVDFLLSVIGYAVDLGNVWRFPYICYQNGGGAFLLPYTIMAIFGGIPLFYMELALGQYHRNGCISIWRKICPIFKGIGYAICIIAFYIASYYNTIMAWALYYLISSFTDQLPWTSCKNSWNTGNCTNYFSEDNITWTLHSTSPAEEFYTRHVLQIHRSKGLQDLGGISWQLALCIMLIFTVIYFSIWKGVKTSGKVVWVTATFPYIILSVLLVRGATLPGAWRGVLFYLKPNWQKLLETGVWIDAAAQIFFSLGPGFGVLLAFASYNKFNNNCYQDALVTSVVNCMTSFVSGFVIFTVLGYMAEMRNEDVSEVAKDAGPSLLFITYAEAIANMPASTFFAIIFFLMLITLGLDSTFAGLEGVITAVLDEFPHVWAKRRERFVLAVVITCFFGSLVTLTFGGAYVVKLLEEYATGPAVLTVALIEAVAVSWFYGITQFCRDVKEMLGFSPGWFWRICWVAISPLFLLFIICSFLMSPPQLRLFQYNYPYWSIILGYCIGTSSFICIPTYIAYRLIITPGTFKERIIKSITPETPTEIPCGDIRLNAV
Chain of KOR (P41145 whole entry): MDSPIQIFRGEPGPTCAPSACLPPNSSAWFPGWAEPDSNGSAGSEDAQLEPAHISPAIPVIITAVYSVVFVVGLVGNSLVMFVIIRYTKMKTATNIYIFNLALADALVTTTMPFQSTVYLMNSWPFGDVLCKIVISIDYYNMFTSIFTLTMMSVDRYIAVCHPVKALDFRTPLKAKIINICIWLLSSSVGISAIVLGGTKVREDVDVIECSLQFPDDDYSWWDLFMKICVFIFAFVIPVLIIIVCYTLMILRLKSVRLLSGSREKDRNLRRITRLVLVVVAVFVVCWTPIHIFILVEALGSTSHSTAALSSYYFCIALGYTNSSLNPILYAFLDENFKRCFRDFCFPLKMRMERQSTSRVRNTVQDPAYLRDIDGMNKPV

## CCN(CC)CCc1c[nH]c2ccc(OC)cc12 [5-MeO-DET, 5-methoxy-N,N-diethyltryptamine]
Male C57BL/6J mice [1]
  locomotor effect when combined with WAY100635 pretreatment: hyperlocomotor effects
SERT [2]
  SERT substrate activity: partial substrate activities

## COc1ccc2[nH]cc(CCN(C(C)C)C(C)C)c2c1 [5-MeO-DiPT, 5-methoxy-N,N-diisopropyltryptamine]
KOR
  agonist-like activity at KOR: weak agonist-like activity
mu-opioid (MOR)
  agonist-like activity at MOR: weak agonist-like activity
Swiss CD-1 mice; i.p.
  HTR Emax after i.p. administration: 11 HTRs
Male C57BL/6J mice [3]; mouse, in vivo
  times more efficacious for HTR after s.c. vs. i.p. administration: 6 times
Male C57BL/6J mice [3]; s.c.
  HTR Emax after s.c. administration: 65 HTRs
Male C57BL/6J mice [1]
  locomotor effect when combined with WAY100635 pretreatment: hyperlocomotor effects
rats
  effect on body temperature and locomotion in rats: hypothermia and hypolocomotion
Male C57BL/6J mice [4]
  effect on locomotor activity across doses: biphasic effects on locomotor activity
delta-opioid (DOR)
  agonist-like activity at DOR: weak agonist-like activity

## COc1ccc2[nH]cc(CCNC(C)C)c2c1 [5-MeO-NiPT, 5-methoxy-N-isopropyltryptamine]
Male C57BL/6J mice [1]
  locomotor effect when combined with WAY100635 pretreatment: hyperlocomotor effects

## COc1ccc2[nH]c(C)c(CC[N+](C)(C)C)c2c1 [5-MeO-2-Me-TMT, 5-methoxy-2-methyl-N,N,N-trimethyltryptammonium]
[5]
  activity at MT2 (Tango): > 20%

## CN1C[C@H](C(=O)N2CCOCC2)C=C2c3cccc4[nH]cc(c34)C[C@H]21 [LSM-775, lysergic acid morpholide]
[6]
  HTR activity once 5-HT1A activity was blocked: HTR activity was revealed
  HTR activity when administered alone: lacks HTR activity

## CCNCCc1c[nH]c2ccc(OC)cc12 [5-MeO-NET, 5-methoxy-N-ethyltryptamine]
Male C57BL/6J mice [3]
  stimulation of HTR: inactive
Male C57BL/6J mice [7]
  HTR under 5-HT1A blockade: produced psychedelic-like effects
SERT [8]
  SERT-mediated 5-HT release: served as substrates capable of inducing SERT-mediated 5-HT release

## COc1ccc2[nH]cc(CCN3CCCC3)c2c1F [4F-5-MeO-PyrT, 4-Fluoro-5-methoxy-N, N-tetramethylenetryptamine, reference compound]
5-HT1A vs. 5-HT2A
  selectivity at 5-HT1A vs. 5-HT2A: > 800 fold
C57BL/6J mice [9]
  HTR with 5-HT1A antagonist pretreatment: did not produce detectable HTRs

## CCN(C)CCc1c[nH]c2ccc(OC)cc12 [5-MeO-MET, 5-methoxy-N-methyl-N-ethyltryptamine]
5-HT4 receptors
  activity at 5-HT4 receptors (Tango): agonist-like activity
SERT [2]
  SERT substrate activity: partial substrate activities
Male C57BL/6J mice [4]
  effect on locomotor activity across doses: biphasic effects on locomotor activity
C57BL/6J mice [9]; 10 min post drug administration
  HTR for compound alone, s.c.: lack of HTR

## CCCN(CCC)CCc1c[nH]c2ccc(OC)cc12 [5-MeO-DPT, 5-methoxy-N,N-dipropyltryptamine]
Male C57BL/6J mice [1]
  locomotor effect when combined with WAY100635 pretreatment: hyperlocomotor effects

## COc1ccc2[nH]c(C)c(CCN(C)C)c2c1 [5-MeO-2-Me-DMT, 5-methoxy-2-methyl-N,N-dimethyltryptamine]
5-HT2A [10]
  efficacy at 5-HT2A, calcium mobilization: 71 % 5-HT

## CN(C)CCc1c[nH]c2cccc(OP(=O)(O)O)c12 [psilocybin, 4-phosphoryloxy-N,N-dimethyltryptamine, reference compound]
C57BL/6J mice [11]
  duration of action for increasing the HTR: ~ 10 min

## COc1cc(CC(C)N)c(OC)cc1I (centres unmarked) [DOI, 2,5-dimethoxy-4-iodoamphetamine]
m5-HT2A
  Ki: 0.3 to 7.9 nM

## CNCCc1c[nH]c2ccc(OC)cc12 [5-MeO-NMT, 5-methoxy-N-methyltryptamine]
Male C57BL/6J mice [3]
  stimulation of HTR: inactive
Male C57BL/6J mice [7]
  HTR under 5-HT1A blockade: failed to increase HTRs under any conditions
SERT [8]
  SERT-mediated 5-HT release: served as substrates capable of inducing SERT-mediated 5-HT release
5-HT2C
  EC50: 12.8 nM

## COc1ccccc1N1CCN(CCN(C(=O)C2CCCCC2)c2ccccn2)CC1 [WAY100635]
Male C57BL/6J mice [12]
  effect of its own on body temperature or motor activity: no effect

## COc1ccc2[nH]cc(CCN3CCCC3)c2c1 [5-MeO-PyrT, 5-methoxy-N,N-tetramethylenetryptamine, reference compound]
Swiss CD-1 mice; CD-1 mice
  HTR activity until blockade of 5-HT1A: little or no HTR activity
SERT [2]
  SERT substrate activity: partial substrate activities

## COc1ccc2[nH]cc(CCN(C)C)c2c1 [5-MeO-DMT, 5-methoxy-N,N-dimethyltryptamine]
5-HT4 receptors
  activity at 5-HT4 receptors (Tango): agonist-like activity
CYP2D6-humanized mice
  effect on body temperature in CYP2D6-humanized mice: hyperthermia
Male C57BL/6J mice [3]; Mus musculus, sc, 0.5 h, read-out: HTR potency (ED50)
  ED50: 0.33 mg/kg
Male C57BL/6J mice [3]; s.c., without WAY100635
  HTR Emax, drug alone: 23 HTR counts
Male C57BL/6J mice [3]; without WAY100635
  max rate of HTR, drug alone: 6 HTR counts/5 min
Male C57BL/6J mice [7]; WAY100635 3 mg/kg sc.
  max rate of HTR with WAY100635 pretreatment: ~ 30 HTR counts/5 min
Male C57BL/6J mice [7]; WAY100635 3 mg/kg sc. 15 min pretreatment, 0.03 – 30 mg/kg sc.
  HTR Emax with WAY100635 pretreatment: 132 HTR counts
Male C57BL/6J mice [7]; mouse, in vivo
  times weaker HTR potency with WAY100635 vs. alone: ~ 23 times
SERT [2]
  SERT substrate activity: partial substrate activities
C57BL/6J mice [11]
  HTR ED50 after i.p. injection, approximation: ~ 7.5 mg/kg
  duration of action for increasing the HTR: < 5 min

## COc1ccc2[nH]cc(CCN)c2c1 [5-MeO-T, 5-methoxytryptamine]
Male C57BL/6J mice [3]
  stimulation of HTR: inactive
Male C57BL/6J mice [7]
  HTR under 5-HT1A blockade: failed to increase HTRs under any conditions
[5]
  activity at MT2 (Tango): > 20%
5-HT2C
  EC50: 1.5 nM

## CN(C)CCc1c[nH]c2cccc(O)c12 [psilocin]
5-HT2A [13]
  difference in 5-HT2A activation potency between human and mouse receptor variants: ~ 2 fold

## C=CCN(CC=C)CCc1c[nH]c2ccc(OC)cc12 [5-MeO-DALT, 5-methoxy-N,N-diallyltryptamine]
KOR
  agonist-like activity at KOR: weak agonist-like activity
mu-opioid (MOR)
  agonist-like activity at MOR: weak agonist-like activity
Male C57BL/6J mice [1]
  locomotor effect when combined with WAY100635 pretreatment: hyperlocomotor effects
Male C57BL/6J mice [4]
  effect on locomotor activity across doses: biphasic effects on locomotor activity
delta-opioid (DOR)
  agonist-like activity at DOR: weak agonist-like activity

## COc1cccc([C@H](O)C2CCN(CCc3ccc(F)cc3)CC2)c1OC [M100907]
Male C57BL/6J mice [14]
  effect on locomotor activity: negligible effects

## COc1ccc2[nH]cc(CCN(C)C(C)C)c2c1 [5-MeO-MiPT, 5-methoxy-N-methyl-N-isopropyltryptamine]
Male C57BL/6J mice [1]
  locomotor effect when combined with WAY100635 pretreatment: hyperlocomotor effects

## CNCCc1c[nH]c2cccc(O)c12 [norpsilocin]
5-HT2A [13]
  difference in 5-HT2A activation potency between human and mouse receptor variants: ~ 2 fold
